Reference: US7211572B2 (Japan Tobacco Inc., priority 2003, dated 2007)
Counter-ions that a name gives are not always drawn.

Biological target: T1, HIV integrase (Human immunodeficiency virus type 1 group M subtype B, UniProt P12497, F1332H)
T1 construct: HIV integrase full length gene; made in house; host or cells: Escherichia coli BL21(DE3), plasmid pET21a-INH
Assay: Determination of enzyme (HIV integrase) inhibitory activity
Type: biochemical
Settings: recombinant HIV integrase (F185H), strand transfer ELISA, absorbance at 450 nm
Summary of the method: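 Full-length integrase with F185H, expressed in E. coli and purified, was reacted for 60 min at 37 °C with compound and biotinylated donor DNA bound to streptavidin plates. Target DNA was added for 10 min, then anti-digoxigenin-peroxidase detection at A450; IC50 from % inhibition versus enzyme-free blank.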

| Compound | IC50 |
| --- | --- |
| Cn1nc2c(c(O)c1=O)C(=O)N(Cc1cccc(Cl)c1)CC2 [Example 123, 6-(3-chlorobenzyl)-4-hydroxy-2-methyl-2,6,7,8-tetrahydropyrido[4,3-c]pyridazine-3,5-dione] | 100 to 1000 nM |
| O=c1c(-c2cc3ccccc3o2)cn2ccn(Cc3cccc(Cl)c3)c(=O)c2c1O [Example 124, 7-(benzofuran-2-yl)-2-(3-chlorobenzyl)-9-hydroxy-2H-pyrido[1,2-a]pyrazine-1,8-dione hydrochloride] | 10 to 100 nM |
| CC(C)(C)C(=O)c1cn2ccn(Cc3cccc(Cl)c3)c(=O)c2c(O)c1=O [Example 125, 2-(3-chlorobenzyl)-7-(2,2-dimethylpropionyl)-9-hydroxy-2H-pyrido[1,2-a]pyrazine-1,8-dione hydrochloride] | < 10 nM |
| CC(C)(C)Cc1cn2ccn(Cc3cccc(Cl)c3)c(=O)c2c(O)c1=O [Example 126, 2-(3-chlorobenzyl)-7-(2,2-dimethylpropyl)-9-hydroxy-2H-pyrido[1,2-a]pyrazine-1,8-dione hydrochloride] | 10 to 100 nM |
| O=c1c(-c2ccccc2C(F)(F)F)cn2ccn(Cc3cccc(Cl)c3)c(=O)c2c1O [Example 127, 2-(3-chlorobenzyl)-9-hydroxy-7-(2-trifluoromethylphenyl)-2H-pyrido[1,2-a]pyrazine-1,8-dione hydrochloride] | < 10 nM |
| COc1cccc(-c2cn3ccn(Cc4cccc(Cl)c4)c(=O)c3c(O)c2=O)c1 [Example 128, 2-(3-chlorobenzyl)-9-hydroxy-7-(3-methoxyphenyl)-2H-pyrido[1,2-a]pyrazine-1,8-dione hydrochloride] | 10 to 100 nM |
| CC(C)c1cn(Cc2cccc(Cl)c2)c(=O)c2c(O)c(=O)c(Br)cn12 [Example 129, 7-bromo-2-(3-chlorobenzyl)-9-hydroxy-4-isopropyl-2H-pyrido[1,2-a]pyrazine-1,8-dione hydrochloride] | 10 to 100 nM |
| O=c1c(-c2ccccc2F)cn2ccn(Cc3cccc(Cl)c3)c(=O)c2c1O [Example 130, 2-(3-chlorobenzyl)-7-(2-fluorophenyl)-9-hydroxy-2H-pyrido[1,2-a]pyrazine-1,8-dione hydrochloride] | < 10 nM |
| CC(C)c1cn(Cc2cccc(Cl)c2)c(=O)c2c(O)c(=O)c(-c3ccccc3)cn12 [Example 131, 2-(3-chlorobenzyl)-9-hydroxy-4-isopropyl-7-phenyl-2H-pyrido[1,2-a]pyrazine-1,8-dione hydrochloride] | 10 to 100 nM |
| COc1ccccc1-c1cn2ccn(Cc3cccc(Cl)c3)c(=O)c2c(O)c1=O [Example 132, 2-(3-chlorobenzyl)-9-hydroxy-7-(2-methoxyphenyl)-2H-pyrido[1,2-a]pyrazine-1,8-dione hydrochloride] | 10 to 100 nM |
| COc1ccc(-c2cn3ccn(Cc4cccc(Cl)c4)c(=O)c3c(O)c2=O)cc1 [Example 133, 2-(3-chlorobenzyl)-9-hydroxy-7-(4-methoxyphenyl)-2H-pyrido[1,2-a]pyrazine-1,8-dione hydrochloride] | < 10 nM |
| CCc1cn2ccn(Cc3cccc(Cl)c3)c(=O)c2c(O)c1=O [Example 134, 2-(3-chlorobenzyl)-7-ethyl-9-hydroxy-2H-pyrido[1,2-a]pyrazine-1,8-dione hydrochloride] | 10 to 100 nM |
| Cc1cccc(C)c1-c1cn2ccn(Cc3cccc(Cl)c3)c(=O)c2c(O)c1=O [Example 135, 2-(3-chlorobenzyl)-7-(2,6-dimethylphenyl)-9-hydroxy-2H-pyrido[1,2-a]pyrazine-1,8-dione hydrochloride] | 10 to 100 nM |
| O=c1c(-c2cccc(O)c2)cn2ccn(Cc3cccc(Cl)c3)c(=O)c2c1O [Example 136, 2-(3-chlorobenzyl)-9-hydroxy-7-(3-hydroxyphenyl)-2H-pyrido[1,2-a]pyrazine-1,8-dione] | < 10 nM |
| O=C(c1ccccc1)c1cn2ccn(Cc3cccc(Cl)c3)c(=O)c2c(O)c1=O [Example 137, 7-benzoyl-2-(3-chlorobenzyl)-9-hydroxy-2H-pyrido[1,2-a]pyrazine-1,8-dione hydrochloride] | 10 to 100 nM |
| CCc1ccccc1-c1cn2ccn(Cc3cccc(Cl)c3)c(=O)c2c(O)c1=O [Example 138, 2-(3-chlorobenzyl)-7-(2-ethylphenyl)-9-hydroxy-2H-pyrido[1,2-a]pyrazine-1,8-dione hydrochloride] | 10 to 100 nM |
| CC(C)c1cn(Cc2cccc(Cl)c2)c(=O)c2c(O)c(=O)c(-c3cccc(Cl)c3)cn12 [Example 139, 2-(3-chlorobenzyl)-7-(3-chlorophenyl)-9-hydroxy-4-isopropyl-2H-pyrido[1,2-a]pyrazine-1,8-dione] | 10 to 100 nM |
| O=c1c(Cc2ccccc2)cn2ccn(Cc3cccc(Cl)c3)c(=O)c2c1O [Example 140, 7-benzyl-2-(3-chlorobenzyl)-9-hydroxy-2H-pyrido[1,2-a]pyrazine-1,8-dione hydrochloride] | 10 to 100 nM |
| O=c1c(-c2ccccc2O)cn2ccn(Cc3cccc(Cl)c3)c(=O)c2c1O [Example 141, 2-(3-chlorobenzyl)-9-hydroxy-7-(2-hydroxyphenyl)-2H-pyrido[1,2-a]pyrazine-1,8-dione] | < 10 nM |
| O=c1c(-c2ccc(O)cc2)cn2ccn(Cc3cccc(Cl)c3)c(=O)c2c1O [Example 142, 2-(3-chlorobenzyl)-9-hydroxy-7-(4-hydroxyphenyl)-2H-pyrido[1,2-a]pyrazine-1,8-dione] | 10 to 100 nM |
| Cn1cc2c(c(O)c1=O)C(=O)N(Cc1cccc(C(F)(F)F)c1)CC2 [Example 143, 8-hydroxy-6-methyl-2-(3-trifluoromethylbenzyl)-2,3,4,6-tetrahydro-2,6-naphthyridine-1,7-dione] | 100 to 1000 nM |
| COc1cccc(CN2CCc3cn(C)c(=O)c(O)c3C2=O)c1 [Example 144, 8-hydroxy-2-(3-methoxybenzyl)-6-methyl-2,3,4,6-tetrahydro-2,6-naphthyridine-1,7-dione] | 10 to 100 nM |
| Cn1nc2ccn(Cc3cccc(Cl)c3)c(=O)c2c(O)c1=O [Example 145, 6-(3-chlorobenzyl)-4-hydroxy-2-methyl-2,6-dihydropyrido[4,3-c]pyridazine-3,5-dione] | 100 to 1000 nM |
| O=c1ccn2ncn(Cc3cccc(Cl)c3)c(=O)c2c1O [Example 146, 3-(3-chlorobenzyl)-5-hydroxy-3H-pyrido[2,1-f][1,2,4]triazine-4,6-dione] | 100 to 1000 nM |
| COC(=O)c1cn2ccn(Cc3cccc(Cl)c3)c(=O)c2c(O)c1=O [Example 147, methyl 2-(3-chlorobenzyl)-9-hydroxy-1,8-dioxo-1,8-dihydro-2H-pyrido[1,2-a]pyrazine-7-carboxylate hydrochloride] | 10 to 100 nM |
| Cn1ccnc1-c1cn2ccn(Cc3cccc(Cl)c3)c(=O)c2c(O)c1=O [Example 148, 2-(3-chlorobenzyl)-9-hydroxy-7-(1-methyl-1H-imidazol-2-yl)-2H-pyrido[1,2-a]pyrazine-1,8-dione hydrochloride] | 10 to 100 nM |
| CC(C)C(=O)c1cn2ccn(Cc3cccc(Cl)c3)c(=O)c2c(O)c1=O [Example 149, 2-(3-chlorobenzyl)-9-hydroxy-7-isobutyryl-2H-pyrido[1,2-a]pyrazine-1,8-dione hydrochloride] | < 10 nM |
| CC(C)OC(=O)c1cn2ccn(Cc3cccc(Cl)c3)c(=O)c2c(O)c1=O [Example 150, isopropyl 2-(3-chlorobenzyl)-9-hydroxy-1,8-dioxo-1,8-dihydro-2H-pyrido[1,2-a]pyrazine-7-carboxylate] | 10 to 100 nM |
